Patent publication US11957656B2, “Methods of treating Prader-Willi syndrome” (The Trustees of Columbia University in the City of New York, priority 2016, dated 2024)
Where two headings read alike, the source gives them in different places.

Assays:
[1] = cited from earlier work
[2] = tested on: PDE4; conditions: cited from earlier work
[3] = tested on: adenylate cyclase (AC) isoforms; conditions: cited from earlier work
[4] = tested on: cAMP; test: cAMP levels in hypothalamic arcuate-like (ARC) neurons (Hes Nkx2-1 hESC line); type: cell-based, human; conditions: 10 μM Forskolin, thirty minutes, day 37 of differentiation
Procedure: Cyclic AMP concentrations increased about 8.5-fold in iPSC-derived hypothalamic ARC neurons exposed to 10 μM Forskolin, supporting the inference that application of Forskolin increases PCSK1 transcript levels by raising cellular cAMP levels which in turn activate PCSK1's cAMP-response element promoter. FIG. 5A is a graph showing primary forebrain neurons were isolated from gestational day 19.5 (E19.5) embryos of wild type mice and cultured for 72 hours. Subsequently, cells were exposed to either 10 μM Forskolin or its vehicle, dimethyl sulfoxide (DMSO) for 20 hours. Pcsk1 transcript increased 2.5-fold in primary neurons exposed to Forskolin. FIG. 5B is a graph showing unaffected control hypothalamic arcuate-like (ARC) neurons (Hes Nkx2-1 hESC line) at day 37 ([…]) of differentiation were treated with 10 μM Forskolin or vehicle for thirty minutes. Cyclic adenosine monophosphate (cAMP) levels were increased about 8.5-fold in cells exposed to Forskolin. […] Four hours of exposure yielded the maximal increase in upregulation, about 2.5-fold, of the time points tested.

[5] = tested on: PC1; test: PC1 protein levels in isolated islets from WT mice; type: cell-based, mouse; conditions: isolated islets from wild type mice, 25 μM and 50 μM Forskolin
[6] = tested on: PCSK1 transcript; test: PCSK1 transcript levels in iPSC-derived neurons; type: cell-based, human
Procedure: FIGS. 6A-F are graphs showing that application of phosphodiesterase inhibitors to iPSC-derived neurons increases PCSK1 transcript levels and prohormone processing. […] FIGS. 6B-C: Roflumilast increases PCSK1 transcript levels in iPSC-derived neurons at Day 40 of differentiation (1043D3 line) at […] concentration. […] FIG. 6F: MK0952 applied at 10 μM in combination with 1 μM Forskolin increases PCSK1 transcript levels ˜2-fold in iPSC-derived neurons (1043D3 line).
Forskolin was applied to various cellular models and the results illustrate that it robustly and reliably increases PCSK1 transcript levels, PC1 protein levels, and functionally increases prohormone processing. PCSK1/Pcsk1 transcript levels increased between 2-3 fold in iPSC-derived neurons and primary mouse neurons exposed to 10 μM Forskolin (FIGS. 5A, C, D).
Cyclic AMP concentrations increased about 8.5-fold in iPSC-derived hypothalamic ARC neurons exposed to 10 μM Forskolin, supporting the inference that application of Forskolin increases PCSK1 transcript levels by raising cellular cAMP levels which in turn activate PCSK1's cAMP-response element promoter. FIG. 5A is a graph showing primary forebrain neurons were isolated from gestational day 19.5 (E19.5) embryos of wild type mice and cultured for 72 hours. Subsequently, cells were exposed to either 10 μM Forskolin or its vehicle, dimethyl sulfoxide (DMSO) for 20 hours. Pcsk1 transcript increased ˜2.5-fold in primary neurons exposed to Forskolin. FIG. 5B is a graph showing unaffected control hypothalamic arcuate-like (ARC) neurons (Hes Nkx2-1 hESC line) at day 37 (D37) of differentiation were treated with 10 μM Forskolin or vehicle for thirty minutes. Cyclic adenosine monophosphate (cAMP) levels were increased about 8.5-fold in cells exposed to Forskolin. […] Four hours of exposure yielded the maximal increase in upregulation, about 2.5-fold, of the time points tested.
However, the effect size of PDE inhibition on PCSK1 transcript levels is less than that induced by AC agonism with forskolin. […] Again, increased PCSK1 transcription due to combination treatment with Forskolin and Roflumilast also increases prohormone processing of POMC to ACTH (FIG. 6E).

[7] = Ratio of circulating proinsulin:insulin in wild type mice; type: in vivo, mouse; conditions: single administration, ~4 hour fasted wild type mice
Procedure: The first in vivo study with MK0952 administered by oral gavage while forskolin was administered intraperitoneally one time to ˜4 hour fasted wild type mice was completed. […] This difference likely reflects greater CNS penetrance of the MK0952, not the general relevance of a cyclase activator to therapy of PWS. No change in the ratio of circulating proinsulin:insulin was detected following administration MK0952 or Forskolin. Because the processing of proinsulin to insulin is already quite efficient in WT animals, it is in hindsight unlikely that it would further increase at fasting. However, these ‘baseline’ data are still valuable for assessing proinsulin to insulin processing under the setting of an intraperitoneal glucose tolerance test at […] glucose in both WT and Snord116^p−/m+ mice. Additionally, samples were collected for measurement of circulating cAMP levels, cortical proBDNF/BDNF, cerebellar Pcsk1, gastric Pcsk1, and gastric proghrelin/ghrelin, and finally pulmonary Pcsk1 transcript and cAMP levels.

[8] = tested on: whole blood; conditions: cited from earlier work
[9] = tested on: PDE4; conditions: read-out: IC50 (intrinsic potency, PDE4 inhibitor); cited from earlier work
[10] = cited from earlier work; remark: listed apart in the source

In the case of `CCOc1cc([C@@H](CS(C)(=O)=O)N2C(=O)c3cccc(NC(C)=O)c3C2=O)ccc1OC` [Apremilast], the Brain penetration ([1]; PDE4 inhibitors, Table 1A) is given as “None” and the PDE4 selectivity [2] is given as “Selective”.

For `C=C[C@@]1(C)CC(=O)[C@]2(O)[C@@]3(C)[C@@H](O)CCC(C)(C)[C@@H]3[C@H](OC(=O)CCN(C)C)[C@H](OC(C)=O)[C@@]2(C)O1.Cl` [FD5], the AC isoforms activated [3] is given as “AC5 (AC5 expressed in heart,”.

In the case of `C=C[C@@]1(C)CC(=O)[C@]2(O)[C@@]3(C)[C@@H](O)CCC(C)(C)[C@@H]3[C@H](O)[C@H](OC(C)=O)[C@@]2(C)O1` [Forskolin], the cAMP levels increase [4] is given as “about 8.5 fold”, the “PC1 protein levels increase” value [5] is given as about 3 fold and the Brain penetration ([1]; adenylate cyclase activators, Table 2) is given as “Yes”. For the same compound, the “maximal increase in PCSK1 upregulation” value ([6]; iPSC-derived neurons (line 1043D3), 10 μM Forskolin, four hours) was “about 2.5 fold” and the “PCSK1 transcript levels increase” value ([6]; iPSC-derived neurons exposed to 10 μM Forskolin) was 2-3 fold.

For `CCn1ncc2c(NC3CCOCC3)c(-c3nnc(Cc4sc(C)nc4C)o3)cnc21` [GSK356278], the Brain penetration ([1]; PDE4 inhibitors, Table 1A) is given as “Good” and the PDE4 selectivity [2] is given as “Selective”.

In the case of `CC(C)Cn1c(=O)n(C)c(=O)c2[nH]cnc21` [IBMX, 3-isobutyl-1-methylxanthine], the PDE4 selectivity [2] is listed as “nonselective”.

In the case of `CC(C)C(=O)c1c(C(C)C)nn2ccccc12` [Ibudilast], the Brain penetration ([1]; PDE4 inhibitors, Table 1A) is given as “Yes”.

For `O=C(NC1CC1)c1cn(-c2cccc(-c3ccc([C@@H]4C[C@H]4C(=O)O)c(F)c3)c2)c2ncccc2c1=O` [MK0952], the “ratio of circulating proinsulin:insulin” value [7] is listed as “No change”, the IC50 [8] is listed as 555 nM and the Brain penetration ([1]; PDE4 inhibitors, Table 1A) is listed as “brain-penetrant and yes”. The PDE4 selectivity [2] was “selective”, the “PCSK1 transcription, MK0952 as single agent in vitro” value ([6]; iPSC-derived neurons) was “only been found to increase PCSK1 transcription in combination with Forskolin” and the IC50 [9] was 0.6 nM.

For `CC(=O)N[C@@H](C)c1cc(Cl)ccc1C1CCN(C(=O)[C@@H]2CN(C(C)(C)C)C[C@H]2c2ccc(F)cc2F)CC1` [MK-0493], the “efficacy for weight loss in non-genetic obese” value [10] is listed as “animal models but limited”.

For `O=C(Nc1c(Cl)cncc1Cl)c1ccc(OC(F)F)c(OCC2CC2)c1` [Roflumilast], the Brain penetration ([1]; PDE4 inhibitors, Table 1A) is given as “limited”, the PDE4 selectivity [2] is given as “Selective” and the “PCSK1 transcript levels, single agent” value ([6]; iPSC-derived neurons Day 40 (1043D3 line), 1 mM) is given as “increases”.

With `Cn1c(=O)c2[nH]cnc2n(C)c1=O` [Theophylline] the “PCSK1 transcript levels, single agent” value ([6]; D34 iPSC-derived hypothalamic ARC neurons (1023A line), 10 mM) was “increases”.
